Reference: patent publication US10072045B1, “Antibacterial lipopeptides and methods for their preparation and use” (priority 2017, dated 2018)
≈ marks a conversion by molar mass, not a printed value. Like-named read-outs stand apart in the source and are kept apart here.

Legend:
Format in all cases: cell-based
[1] = system: Vancomycin-Resistant Enterococci faecalis (VRE, ATCC 51299); assay: microbe, parasite or virus in culture
Protocol: (§1) See, Balouiri, M.; Sadiki, M.; Ibnsouda, S. K.; Methods for In vitro evaluation of antimicrobial activity: review. Journal of Pharmaceutical Analysis, 2016, 6 (2), 71-79; CLSI, Methods for Dilution Antimicrobial Susceptibility Tests for Bacteria that Grow Aerobically, Approved Standard, 9th Ed, CLSI document M07-A9. Approximately 50 μl of the bacterial (MRSA or MSSA) cell suspension (1.0×10^6/ml) inoculated in each well (96-micro well plate) containing 50 μl of dosing solution and plates were incubated at 37±+1C for 18 hrs. After the incubation, bacterial growth in each well of 96-well plate were calorimetrically measured by a Biotek microtiter plate reader at 630 nm. The bacterial growth inhibition (GI) is expressed as a percentage relative to the negative control.
(§2) Vancomycin-Resistant Enterococci faecalis (VRE, ATCC 51299);

[2] = system: Vancomycin-Resistant Enterococci faecium (VRE, ATCC 700221); assay: microbe, parasite or virus in culture
Protocol: as §1
(§3) Vancomycin-Resistant Enterococci faecium (VRE, ATCC 700221);

[3] = system: Methicillin-Resistant Staphylococcus aureus (MRSA, ATCC33591); assay: microbe, parasite or virus in culture; details: for potency relative to daptomycin against MRSA: fold as potent as daptomycin
Protocol: as §1
Methicillin-Resistant Staphylococcus aureus (MRSA, ATCC33591)

[4] = system: Vancomycin-Sensitive Enterococci faecalis (VSE, ATCC 29212); assay: microbe, parasite or virus in culture
Protocol: as §1
Vancomycin-Sensitive Enterococci faecalis (VSE, ATCC 29212);

[5] = system: Vancomycin-Sensitive Enterococci hirae (VSE, ATCC 1056); assay: microbe, parasite or virus in culture
Protocol: as §1
Vancomycin-Sensitive Enterococci hirae (VSE, ATCC 1056).

[6] = system: Vancomycin-Resistant Enterococci (VRE); assay: Potency against VRE relative to daptomycin (Test C); details: fold better potency; strain not specified
Protocol: as §1, §3, §2

[7] = system: Methicillin-Resistant Staphylococcus aureus (MRSA, PBR Lab Culture#1152); assay: microbe, parasite or virus in culture; details: Test B, read-out: Minimum Inhibitory Concentration (MIC) MRSA (PBR1152)
Protocol: as §1
Methicillin-Resistant Staphylococcus aureus (MRSA, PBR Lab Culture#1152)

[8] = system: Methicillin-Sensitive Staphylococcus aureus (MSSA, ATCC6538); assay: microbe, parasite or virus in culture; details: read-out: Minimum Inhibitory Concentration (MIC) MSSA (ATCC6538)
Protocol: as §1
Methicillin-Sensitive Staphylococcus aureus (MSSA, ATCC6538)

Minimum Inhibitory Concentration (MIC) VRE (ATCC 51299) [1] [µM]	Minimum Inhibitory Concentration (MIC) VRE (ATCC 700221) [2] [µM]	Minimum Inhibitory Concentration (MIC) VSE (ATCC 29212) [4] [µM]	Minimum Inhibitory Concentration (MIC) VSE (ATCC 1056) [5] [µM]	SMILES	other results
<0.156	<0.156	<0.156	<0.156	CCCCCCCCCC(=O)N[C@@H](Cc1c[nH]c2ccc(F)cc12)C(=O)N[C@H](CC(N)=O)C(=O)N[C@@H](CC(=O)O)C(=O)N[C@@H]1C(=O)NCC(=O)N[C@@H](CCCN)C(=O)N[C@@H](CC(=O)O)C(=O)N[C@H](C)C(=O)N[C@@H](CC(=O)O)C(=O)NCC(=O)N[C@H](CO)C(=O)N[C@@H]([C@H](C)CC(=O)O)C(=O)N[C@@H](CC(=O)c2cc(Cl)cc(Cl)c2NCC)C(=O)O[C@@H]1C [RP005]	potency relative to daptomycin against MRSA [3]: roughly 10 fold; potency relative to daptomycin against Vancomycin-Resistant Enterococci (VRE) [6]: roughly 10 fold
–	–	–	–	CN[C@H](CC(C)C)C(=O)N[C@H]1C(=O)N[C@@H](CC(N)=O)C(=O)N[C@H]2C(=O)N[C@H]3C(=O)N[C@H](C(=O)N[C@H](C(=O)O)c4cc(O)cc(O)c4-c4cc3ccc4O)[C@H](O)c3ccc(c(Cl)c3)Oc3cc2cc(c3O[C@@H]2O[C@H](CO)[C@@H](O)[C@H](O)[C@H]2O[C@H]2C[C@](C)(N)[C@H](O)[C@H](C)O2)Oc2ccc(cc2Cl)[C@H]1O [Vacomycin, reference compound]	MIC ([1]; Enterococcus, read-out: Minimum Inhibitory Concentration (MIC) VRE (ATCC 51299)): > 10 µM; MIC ([2]; Enterococcus, read-out: Minimum Inhibitory Concentration (MIC) VRE (ATCC 700221)): > 10 µM; MIC ([4]; Enterococcus faecalis, ATCC29212, read-out: Minimum Inhibitory Concentration (MIC) VSE (ATCC 29212)): 1.25 µM (≈ 1.81 µg/mL); MIC ([5]; Enterococcus hirae, ATCC1056, read-out: Minimum Inhibitory Concentration (MIC) VSE (ATCC 1056)): 0.313 µM (≈ 0.454 µg/mL)
1.25	2.5	1.25	5.0	CCCCCCCCCC(=O)N[C@@H](Cc1c[nH]c2ccccc12)C(=O)N[C@H](CC(N)=O)C(=O)N[C@@H](CC(=O)O)C(=O)N[C@@H]1C(=O)NCC(=O)N[C@@H](CCCN)C(=O)N[C@@H](CC(=O)O)C(=O)N[C@H](C)C(=O)N[C@@H](CC(=O)O)C(=O)NCC(=O)N[C@H](CO)C(=O)N[C@@H]([C@H](C)CC(=O)O)C(=O)N[C@@H](CC(=O)c2ccccc2N)C(=O)O[C@@H]1C [Daptomycin, reference compound]	–
<0.156	0.625	0.313	1.25	CCCCCCCCCC(=O)N[C@@H](Cc1c[nH]c2ccc(C)cc12)C(=O)N[C@H](CC(N)=O)C(=O)N[C@@H](CC(=O)O)C(=O)N[C@@H]1C(=O)NCC(=O)N[C@@H](CCCN)C(=O)N[C@@H](CC(=O)O)C(=O)N[C@H](C)C(=O)N[C@@H](CC(=O)O)C(=O)NCC(=O)N[C@H](CO)C(=O)N[C@@H]([C@H](C)CC(=O)O)C(=O)N[C@@H](CC(=O)c2ccccc2NCC)C(=O)O[C@@H]1C [RP011]	–
0.625	1.25	0.625	5.0	CCCCCCCCCC(=O)N[C@@H](Cc1c[nH]c2ccccc12)C(=O)N[C@H](CC(N)=O)C(=O)N[C@@H](CC(=O)O)C(=O)N[C@@H]1C(=O)NCC(=O)N[C@@H](CCCN)C(=O)N[C@@H](CC(=O)O)C(=O)N[C@H](C)C(=O)N[C@@H](CC(=O)O)C(=O)NCC(=O)N[C@H](CO)C(=O)N[C@@H]([C@H](C)CC(=O)O)C(=O)N[C@@H](CC(=O)c2ccccc2NCC)C(=O)O[C@@H]1C [RP001]	–
<0.156	0.313	<0.156	0.313	CCCCCCCCCC(=O)N[C@@H](Cc1cn(C)c2ccccc12)C(=O)N[C@H](CC(N)=O)C(=O)N[C@@H](CC(=O)O)C(=O)N[C@@H]1C(=O)NCC(=O)N[C@@H](CCCN)C(=O)N[C@@H](CC(=O)O)C(=O)N[C@H](C)C(=O)N[C@@H](CC(=O)O)C(=O)NCC(=O)N[C@H](CO)C(=O)N[C@@H]([C@H](C)CC(=O)O)C(=O)N[C@@H](CC(=O)c2cc(Br)ccc2NCC)C(=O)O[C@@H]1C [RP008]	–
<0.156	<0.156	<0.156	<0.156	CCCCCCCCCC(=O)N[C@@H](Cc1c[nH]c2ccc(C)cc12)C(=O)N[C@H](CC(N)=O)C(=O)N[C@@H](CC(=O)O)C(=O)N[C@@H]1C(=O)NCC(=O)N[C@@H](CCCN)C(=O)N[C@@H](CC(=O)O)C(=O)N[C@H](C)C(=O)N[C@@H](CC(=O)O)C(=O)NCC(=O)N[C@H](CO)C(=O)N[C@@H]([C@H](C)CC(=O)O)C(=O)N[C@@H](CC(=O)c2cc(Cl)cc(Cl)c2NCC)C(=O)O[C@@H]1C [RP012]	potency relative to daptomycin against MRSA [3]: roughly 10 fold; potency relative to daptomycin against Vancomycin-Resistant Enterococci (VRE) [6]: roughly 10 fold
–	–	–	–	COc1cccc(OC)c1C(=O)N[C@@H]1C(=O)N2[C@@H]1SC(C)(C)[C@@H]2C(=O)O [Methicillin]	MIC [7]: > 64 µg/mL; MIC ([8]; Test A): < 1 µg/mL; MIC ([8]; Test B): < 1 µg/mL; MIC ([3]; Staphylococcus aureus, Test A, read-out: Minimum Inhibitory Concentration (MIC) MRSA (ATCC33591)): > 64 µg/mL
